Legend:
Assay in all cases: radiometric filter-binding kinase assay, Kinase HotSpot
Settings in all cases: compound 0.5 µM; ATP 10 µM
[1] = biological target: CDK4 CCND1 (human) (UniProt P24385+P11802)
[2] = biological target: PAK6 (human) (UniProt Q9NQU5)
[3] = biological target: CDK7 CCNH MNAT1 (human) (UniProt P50613+P51948+P51946)
[4] = biological target: HIPK1 (human) (UniProt Q86Z02)
[5] = biological target: BLK (human) (UniProt P51451)
[6] = biological target: PLK2 (human) (UniProt Q9NYY3)
[7] = biological target: TSSK2 (human) (UniProt Q96PF2)
[8] = biological target: SRPK3 (human) (UniProt Q9UPE1)
[9] = biological target: FYN (human) (UniProt P06241)
[10] = biological target: MAPK11 (human) (UniProt Q15759)
[11] = biological target: MKNK2 (human) (UniProt Q9HBH9)
[12] = biological target: DAPK3 (human) (UniProt O43293)
[13] = biological target: STK17A (human) (UniProt Q9UEE5)
[14] = biological target: IKBKB (human) (UniProt O14920)
[15] = biological target: TBK1 (human) (UniProt Q9UHD2)
[16] = biological target: BTK (human) (UniProt Q06187)
[17] = biological target: STK25 (human) (UniProt O00506)
[18] = biological target: CDK5 CDK5R1 p35 (human) (UniProt Q00535+Q15078)
[19] = biological target: AXL (human) (UniProt P30530)
[20] = biological target: AKT1 (human) (UniProt P31749)
[21] = biological target: CDK4 CCND3 (human) (UniProt P30281+P11802)
[22] = biological target: PRKCD (human) (UniProt Q05655)
[23] = biological target: RPS6KB1 (human) (UniProt P23443)
[24] = biological target: SIK2 (human) (UniProt Q9H0K1)
[25] = biological target: FGFR2 (human) (UniProt P21802)
[26] = biological target: FES (human) (UniProt P07332)
[27] = biological target: PLK1 (human) (UniProt P53350)
[28] = biological target: DDR2 (human) (UniProt Q16832)
[29] = biological target: EPHA7 (human) (UniProt Q15375)
[30] = biological target: MAPK13 (human) (UniProt O15264)
[31] = biological target: GRK7 (human) (UniProt Q8WTQ7)
[32] = biological target: EPHA5 (human) (UniProt P54756)
[33] = biological target: NEK9 (human) (UniProt Q8TD19)
[34] = biological target: INSR (human) (UniProt P06213)
[35] = biological target: GSK3B (human) (UniProt P49841)
[36] = biological target: SGK3 (human) (UniProt Q96BR1)
[37] = biological target: DCLK2 (human) (UniProt Q8N568)
[38] = biological target: SRPK1 (human) (UniProt Q96SB4)
[39] = biological target: MARK4 (human) (UniProt Q96L34)
[40] = biological target: PRKD2 (human) (UniProt Q9BZL6)
[41] = biological target: CSNK1D (human) (UniProt P48730)
[42] = biological target: MST4 (human) (UniProt Q9P289)

STK17A (human), sequence (Q9UEE5 whole entry, looked up): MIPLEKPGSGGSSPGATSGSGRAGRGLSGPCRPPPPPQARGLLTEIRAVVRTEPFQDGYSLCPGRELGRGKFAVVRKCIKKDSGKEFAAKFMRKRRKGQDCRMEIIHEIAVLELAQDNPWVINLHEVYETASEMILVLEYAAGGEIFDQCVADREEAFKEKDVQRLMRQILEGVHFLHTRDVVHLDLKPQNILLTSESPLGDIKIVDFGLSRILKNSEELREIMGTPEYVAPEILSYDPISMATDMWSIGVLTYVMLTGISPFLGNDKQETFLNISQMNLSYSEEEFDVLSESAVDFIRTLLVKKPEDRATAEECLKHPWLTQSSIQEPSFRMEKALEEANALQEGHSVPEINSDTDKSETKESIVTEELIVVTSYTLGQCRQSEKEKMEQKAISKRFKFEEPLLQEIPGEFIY
GRK7 (human), sequence (Q8WTQ7 whole entry, looked up): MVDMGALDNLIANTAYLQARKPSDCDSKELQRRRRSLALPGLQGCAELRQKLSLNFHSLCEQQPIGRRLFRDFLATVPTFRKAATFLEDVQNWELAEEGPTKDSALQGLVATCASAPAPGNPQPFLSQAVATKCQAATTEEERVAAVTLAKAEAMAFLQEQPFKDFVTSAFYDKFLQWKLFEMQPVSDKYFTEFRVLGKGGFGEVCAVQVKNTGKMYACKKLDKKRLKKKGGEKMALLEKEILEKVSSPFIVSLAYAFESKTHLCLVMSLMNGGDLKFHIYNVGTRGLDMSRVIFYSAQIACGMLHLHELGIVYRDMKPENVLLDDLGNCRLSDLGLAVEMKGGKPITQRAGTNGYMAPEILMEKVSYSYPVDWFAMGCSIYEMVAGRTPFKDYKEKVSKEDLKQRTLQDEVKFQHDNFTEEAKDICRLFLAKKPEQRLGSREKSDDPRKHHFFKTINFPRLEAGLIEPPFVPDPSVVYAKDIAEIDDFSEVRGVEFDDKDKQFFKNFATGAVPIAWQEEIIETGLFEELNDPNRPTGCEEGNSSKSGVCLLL
MARK4 (human), sequence (Q96L34 whole entry, looked up): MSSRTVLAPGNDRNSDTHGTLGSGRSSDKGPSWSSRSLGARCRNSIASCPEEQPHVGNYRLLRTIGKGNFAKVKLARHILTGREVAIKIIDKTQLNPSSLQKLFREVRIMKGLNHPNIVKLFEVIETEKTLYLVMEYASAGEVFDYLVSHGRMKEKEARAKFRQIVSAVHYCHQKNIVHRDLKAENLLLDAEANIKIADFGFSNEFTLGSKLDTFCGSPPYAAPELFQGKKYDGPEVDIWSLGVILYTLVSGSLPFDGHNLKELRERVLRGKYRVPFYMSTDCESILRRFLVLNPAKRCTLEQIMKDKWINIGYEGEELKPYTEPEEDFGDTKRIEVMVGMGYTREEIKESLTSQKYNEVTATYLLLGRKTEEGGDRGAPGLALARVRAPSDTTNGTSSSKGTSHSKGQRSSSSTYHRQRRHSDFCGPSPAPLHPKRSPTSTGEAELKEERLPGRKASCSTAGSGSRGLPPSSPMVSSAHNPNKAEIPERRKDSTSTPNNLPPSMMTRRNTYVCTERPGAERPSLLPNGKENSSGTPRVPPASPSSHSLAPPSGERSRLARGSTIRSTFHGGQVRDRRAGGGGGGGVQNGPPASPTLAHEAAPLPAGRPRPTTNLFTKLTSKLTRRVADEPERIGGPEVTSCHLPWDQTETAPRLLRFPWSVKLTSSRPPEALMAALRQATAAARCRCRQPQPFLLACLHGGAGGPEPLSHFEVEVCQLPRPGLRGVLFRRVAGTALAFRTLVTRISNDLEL
PRKD2 (human), sequence (Q9BZL6 whole entry, looked up): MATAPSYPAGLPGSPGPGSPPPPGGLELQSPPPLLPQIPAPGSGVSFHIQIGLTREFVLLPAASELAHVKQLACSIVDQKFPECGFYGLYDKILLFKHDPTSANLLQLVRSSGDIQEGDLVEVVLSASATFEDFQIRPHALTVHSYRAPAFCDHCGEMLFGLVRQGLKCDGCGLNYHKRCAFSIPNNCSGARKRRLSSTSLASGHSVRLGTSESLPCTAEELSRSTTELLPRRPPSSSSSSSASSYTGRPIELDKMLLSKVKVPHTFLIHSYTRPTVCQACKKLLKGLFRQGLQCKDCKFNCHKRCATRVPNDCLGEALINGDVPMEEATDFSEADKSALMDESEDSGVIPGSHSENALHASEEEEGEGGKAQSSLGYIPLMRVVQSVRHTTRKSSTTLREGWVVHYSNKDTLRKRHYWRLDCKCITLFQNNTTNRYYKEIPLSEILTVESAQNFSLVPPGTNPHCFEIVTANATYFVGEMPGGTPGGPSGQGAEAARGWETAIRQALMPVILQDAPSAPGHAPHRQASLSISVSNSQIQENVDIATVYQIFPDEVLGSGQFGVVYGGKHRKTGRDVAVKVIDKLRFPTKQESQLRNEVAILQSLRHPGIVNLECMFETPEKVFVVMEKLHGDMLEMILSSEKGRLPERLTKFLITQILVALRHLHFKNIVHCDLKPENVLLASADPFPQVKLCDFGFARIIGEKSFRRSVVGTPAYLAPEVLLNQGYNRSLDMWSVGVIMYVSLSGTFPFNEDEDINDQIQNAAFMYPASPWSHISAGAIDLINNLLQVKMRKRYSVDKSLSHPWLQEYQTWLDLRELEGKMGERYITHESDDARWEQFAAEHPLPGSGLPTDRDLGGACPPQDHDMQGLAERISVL
SRPK3 (human), sequence (Q9UPE1 whole entry, looked up): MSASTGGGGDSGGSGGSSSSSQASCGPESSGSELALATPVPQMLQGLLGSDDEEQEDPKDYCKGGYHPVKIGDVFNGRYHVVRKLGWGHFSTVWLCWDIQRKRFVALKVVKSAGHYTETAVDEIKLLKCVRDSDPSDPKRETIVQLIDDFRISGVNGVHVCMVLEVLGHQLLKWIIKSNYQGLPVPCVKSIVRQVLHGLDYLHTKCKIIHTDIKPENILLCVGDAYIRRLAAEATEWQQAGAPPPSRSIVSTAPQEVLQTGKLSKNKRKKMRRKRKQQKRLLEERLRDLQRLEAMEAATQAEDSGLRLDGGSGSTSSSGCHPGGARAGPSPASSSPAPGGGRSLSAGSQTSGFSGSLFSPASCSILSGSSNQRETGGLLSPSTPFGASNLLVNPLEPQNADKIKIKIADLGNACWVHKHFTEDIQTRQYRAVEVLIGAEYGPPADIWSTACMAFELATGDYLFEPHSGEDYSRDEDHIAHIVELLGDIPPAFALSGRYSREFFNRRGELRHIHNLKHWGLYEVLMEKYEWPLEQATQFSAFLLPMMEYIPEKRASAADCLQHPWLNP
CSNK1D (human), sequence (P48730 whole entry, looked up): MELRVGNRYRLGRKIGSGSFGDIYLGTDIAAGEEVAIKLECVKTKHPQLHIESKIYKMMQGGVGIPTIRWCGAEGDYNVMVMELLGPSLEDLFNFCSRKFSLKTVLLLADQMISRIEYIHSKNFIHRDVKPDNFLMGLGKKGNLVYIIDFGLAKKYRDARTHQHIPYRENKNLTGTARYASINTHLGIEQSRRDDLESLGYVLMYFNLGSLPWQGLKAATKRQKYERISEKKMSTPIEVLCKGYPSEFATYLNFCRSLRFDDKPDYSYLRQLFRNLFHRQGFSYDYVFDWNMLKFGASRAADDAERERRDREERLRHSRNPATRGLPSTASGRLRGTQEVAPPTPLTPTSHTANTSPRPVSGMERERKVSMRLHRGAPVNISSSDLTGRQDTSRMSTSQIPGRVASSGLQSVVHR
DAPK3 (human), sequence (O43293 whole entry, looked up): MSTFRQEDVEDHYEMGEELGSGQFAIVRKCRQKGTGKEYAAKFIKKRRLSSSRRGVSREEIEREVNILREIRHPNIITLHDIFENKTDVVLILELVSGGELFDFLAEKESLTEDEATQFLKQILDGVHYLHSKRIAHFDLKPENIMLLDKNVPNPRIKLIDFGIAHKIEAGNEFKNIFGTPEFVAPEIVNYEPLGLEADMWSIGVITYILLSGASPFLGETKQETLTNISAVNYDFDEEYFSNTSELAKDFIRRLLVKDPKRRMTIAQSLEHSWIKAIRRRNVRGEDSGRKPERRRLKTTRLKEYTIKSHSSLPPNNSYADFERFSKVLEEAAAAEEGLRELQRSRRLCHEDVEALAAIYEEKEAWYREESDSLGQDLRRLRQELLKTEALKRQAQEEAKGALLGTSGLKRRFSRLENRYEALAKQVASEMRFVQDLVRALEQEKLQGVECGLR
STK25 (human), sequence (O00506 whole entry, looked up): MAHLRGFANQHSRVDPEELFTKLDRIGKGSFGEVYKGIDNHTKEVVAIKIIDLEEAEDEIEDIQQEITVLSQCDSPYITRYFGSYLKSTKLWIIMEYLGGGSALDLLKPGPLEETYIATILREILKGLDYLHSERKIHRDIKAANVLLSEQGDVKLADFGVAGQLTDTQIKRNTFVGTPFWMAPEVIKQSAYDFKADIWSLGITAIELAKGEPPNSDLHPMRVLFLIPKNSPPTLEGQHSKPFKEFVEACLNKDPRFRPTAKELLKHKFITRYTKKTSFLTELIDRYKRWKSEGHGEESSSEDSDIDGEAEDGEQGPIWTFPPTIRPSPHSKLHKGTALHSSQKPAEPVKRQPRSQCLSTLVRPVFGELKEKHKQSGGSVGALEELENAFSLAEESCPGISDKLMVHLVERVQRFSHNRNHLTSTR
MAPK13 (human), sequence (O15264 whole entry, looked up): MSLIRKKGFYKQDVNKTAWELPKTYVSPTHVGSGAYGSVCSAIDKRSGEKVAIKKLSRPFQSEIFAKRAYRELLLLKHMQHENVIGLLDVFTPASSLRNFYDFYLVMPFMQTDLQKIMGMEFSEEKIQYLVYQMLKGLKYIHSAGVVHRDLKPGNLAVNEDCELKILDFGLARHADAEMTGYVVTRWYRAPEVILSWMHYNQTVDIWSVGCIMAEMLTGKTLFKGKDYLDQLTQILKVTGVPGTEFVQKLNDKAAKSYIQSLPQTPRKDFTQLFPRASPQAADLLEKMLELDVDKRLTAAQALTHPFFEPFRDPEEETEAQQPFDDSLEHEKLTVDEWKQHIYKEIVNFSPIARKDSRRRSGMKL

Work on O=c1cc(N2CCNCC2)oc2c(-c3ccccc3)cccc12 yielded a residual activity [1] of 115%, a residual activity [2] of 102% and a residual activity [3] of 99.3%. The residual activity [4] was 110%, the residual activity [5] was 122% and the residual activity [6] was 98.9%. For the same molecule, the residual activity [7] was 101%, the residual activity [8] was 94.4% and the residual activity [9] was 104%. The residual activity [10] was 105%, the residual activity [11] was 107% and the residual activity [12] was 133%. For the same molecule, the residual activity [13] was 98.4%, the residual activity [14] was 103% and the residual activity [15] was 98.7%. It also gave a residual activity [16] of 85.7%, a residual activity [17] of 116% and a residual activity [18] of 102%. The residual activity [19] was 117%, the residual activity [20] was 103% and the residual activity [21] was 101%. For the same molecule, the residual activity [22] was 99.6%, the residual activity [23] was 102% and the residual activity [24] was 110%. It also gave a residual activity [25] of 98.9%, a residual activity [26] of 95.4% and a residual activity [27] of 96.6%. The residual activity [28] was 95.5%, the residual activity [29] was 102% and the residual activity [30] was 104%. For the same molecule, the residual activity [31] was 114%, the residual activity [32] was 109% and the residual activity [33] was 102%. The residual activity [34] was 101%, the residual activity [35] was 97% and the residual activity [36] was 111%. For the same molecule, the residual activity [37] was 116%, the residual activity [38] was 106% and the residual activity [39] was 92.8%. The residual activity [40] was 86.7%, the residual activity [41] was 99.5% and the residual activity [42] was 96.3%.
COc1cc2nccc(Oc3ccc(NC(=S)NC(=O)c4ccccc4C)cc3)c2cc1OC showed a residual activity [1] of 95.1%, a residual activity [2] of 95.8% and a residual activity [3] of 97.7%. For the same molecule, the residual activity [4] was 100%, the residual activity [5] was 8.59% and the residual activity [6] was 99.5%. The residual activity [7] was 86.7%, the residual activity [8] was 95.9% and the residual activity [9] was 77.4%. The residual activity [10] was 89.3%, the residual activity [11] was 94.3% and the residual activity [12] was 75.4%. It also gave a residual activity [13] of 82.3%, a residual activity [14] of 99.4% and a residual activity [15] of 103%. For the same molecule, the residual activity [16] was 28.4%, the residual activity [17] was 103% and the residual activity [18] was 100%. The residual activity [19] was 80.4%, the residual activity [20] was 95.7% and the residual activity [21] was 93.4%. The residual activity [22] was 90.4%, the residual activity [23] was 98% and the residual activity [24] was 97.8%. It also gave a residual activity [25] of 89%, a residual activity [26] of 96.7% and a residual activity [27] of 97.9%. For the same molecule, the residual activity [28] was 54.1%, the residual activity [29] was 90.4% and the residual activity [30] was 101%. The residual activity [31] was 95.6%, the residual activity [32] was 91% and the residual activity [33] was 103%. For the same molecule, the residual activity [34] was 100%, the residual activity [35] was 97.7% and the residual activity [36] was 98.3%. The residual activity [37] was 91.5%, the residual activity [38] was 98% and the residual activity [39] was 73.3%. The residual activity [40] was 86.8%, the residual activity [41] was 212% and the residual activity [42] was 101%.
Work on O=C(Nc1ccc(Cl)cc1)c1ccccc1NCc1ccncc1 yielded a residual activity [1] of 104%, a residual activity [2] of 101% and a residual activity [3] of 95.1%. The residual activity [4] was 92.7%, the residual activity [5] was 102% and the residual activity [6] was 99.3%. The residual activity [7] was 86.3%, the residual activity [8] was 100% and the residual activity [9] was 97%. The residual activity [10] was 91.4%, the residual activity [11] was 82.3% and the residual activity [12] was 94%. The residual activity [13] was 94.7%, the residual activity [14] was 99.3% and the residual activity [15] was 88.4%. For the same molecule, the residual activity [16] was 98.9%, the residual activity [17] was 91.6% and the residual activity [18] was 90.4%. The residual activity [19] was 98.1%, the residual activity [20] was 97.6% and the residual activity [21] was 94.2%. The residual activity [22] was 84.7%, the residual activity [23] was 92.5% and the residual activity [24] was 94.8%. The residual activity [25] was 95.7%, the residual activity [26] was 96.6% and the residual activity [27] was 103%. For the same molecule, the residual activity [28] was 88.9%, the residual activity [29] was 95% and the residual activity [30] was 95.6%. For the same molecule, the residual activity [31] was 96.2%, the residual activity [32] was 82.1% and the residual activity [33] was 91.2%. It also gave a residual activity [34] of 88%, a residual activity [35] of 89.3% and a residual activity [36] of 92.5%. The residual activity [37] was 95.2%, the residual activity [38] was 109% and the residual activity [39] was 107%. For the same molecule, the residual activity [40] was 98%, the residual activity [41] was 98.1% and the residual activity [42] was 90.9%.

Reference: the kinase profiling compilation of Christmann-Franck et al. (2016)
